Source: BigSolDB 2.1

O=C(O)c1cc([N+](=O)[O-])cc([N+](=O)[O-])c1O
solubility (mole fraction)
Conditions | 278.15 K | 283.15 K | 288.15 K | 293.15 K | 298.15 K | 303.15 K | 308.15 K | 313.15 K | 318.15 K | 323.15 K
in 1,4-dioxane | – | – | 0.044 | 0.0495 | 0.0554 | 0.0622 | 0.0695 | 0.0778 | 0.0877 | 0.0994
in DMF | 0.0853 | 0.0951 | 0.107 | 0.119 | 0.135 | 0.152 | 0.171 | 0.19 | 0.214 | 0.241
in DMSO | – | – | – | 0.0749 | 0.0869 | 0.0999 | 0.114 | 0.13 | 0.149 | 0.172
in NMP | 0.0924 | 0.103 | 0.116 | 0.13 | 0.146 | 0.166 | 0.185 | 0.207 | 0.234 | 0.264
in acetonitrile | 0.0108 | 0.0125 | 0.0149 | 0.0177 | 0.0209 | 0.0248 | 0.029 | 0.0349 | 0.0411 | 0.0485
in cyclohexane | – | 0.00292 | 0.0036 | 0.00449 | 0.00558 | 0.00686 | 0.00836 | 0.0104 | 0.0128 | 0.0156
in ethanol | 0.0465 | 0.0518 | 0.0582 | 0.0659 | 0.0756 | 0.0862 | 0.0977 | 0.11 | 0.124 | 0.14
in ethyl acetate | 0.046 | 0.0501 | 0.0554 | 0.0619 | 0.0687 | 0.0771 | 0.0858 | 0.0966 | 0.109 | 0.122
in ethylene glycol | 0.0245 | 0.0277 | 0.0316 | 0.0365 | 0.0415 | 0.0476 | 0.054 | 0.062 | 0.0709 | 0.082
in isobutanol | 0.0139 | 0.0161 | 0.0198 | 0.0244 | 0.0295 | 0.0358 | 0.0439 | 0.0506 | 0.0589 | 0.0712
in isopropanol | 0.0262 | 0.03 | 0.0348 | 0.0402 | 0.0463 | 0.053 | 0.0608 | 0.0702 | 0.0808 | 0.0944
in n-butanol | 0.0116 | 0.0141 | 0.0172 | 0.0199 | 0.024 | 0.0301 | 0.0345 | 0.0424 | 0.049 | 0.0592
in n-propanol | 0.0364 | 0.0403 | 0.0456 | 0.0521 | 0.0597 | 0.068 | 0.0769 | 0.0866 | 0.0972 | 0.111
in water | 0.000646 | 0.000779 | 0.000964 | 0.0012 | 0.00145 | 0.00171 | 0.00198 | 0.00245 | 0.00301 | 0.00381
